Patent US10047151B2, “Methods for the treatment of cancer and inflammatory diseases using cereblon as a predictor” (Celgene Corporation, priority 2011, dated 2018)

Columns and labels:
U266B1 cells = experiment: Cell cycle progression (cells in S phase) in siRNA-transfected U266B1 cells; format: cell-based; details: control mock and negative control siRNA-transfected cells; average of 3 days of treatment; pomalidomide 1 μM, lenalidomide 10 μM
Description: Drugs such as lenalidomide and pomalidomide have direct anti-proliferative activity against MM cells by inducing cell cycle arrest in G1 phase, followed by a decrease in viability. To study the role of CRBN in lenalidomide and other drugs anti-proliferative activities, H929 and U266B1 cells, two sensitive myeloma lines, were transfected with CRBN-siRNAs or control siRNAs for 24, 48, 72 and 96 hours. Cells were treated 24 h after transfection with DMSO (0.1%), pomalidomide (1 μM) and lenalidomide (10 μM) for 1, 2, 3 days to evaluated the compound effect on CRBN protein, mRNA expression and the effect on cell cycle and proliferation. […] CRBN down regulation was confirmed by RT-PCR and Western blot using the CRBN70 antibody (FIG. 1).
Knockdown of CRBN markedly abrogated the lenalidomide and pomalidomide-induced delay in cell cycle progression in U266B1 cells. Id.

H929 cells = experiment: Cell cycle progression (cells in S phase) in siRNA-transfected H929 cells; format: cell-based; details: 72 h treatment
Description: The effect of CRBN in H929 cells was also evaluated. H929 cells were transfected with mock, negative control siRNA and CRBN-siRNA-7 for 24, 48, 72 and 96 h. Cells were treated 24 h after transfection with DMSO (0.1%), pomalidomide (1 μM), lenalidomide (10 μM) or 3-(5-amino-2-methyl-4-oxo-4H-quinazolin-3-yl)-piperidine-2,6-dione (“Compound B”) for 1, 2, 3 days and the effect on cell cycle and proliferation investigated. Lenalidomide, pomalidomide and Compound B induced a delay of cell cycle progression, measured as the decrease of the number of cells in S phase, in control mock and negative control siRNA-transfected cells after 72 h treatment (FIG. 2C). Knockdown of CRBN markedly abrogated immunomodulatory drugs-induced delay in cell cycle progression in H929 cells (FIG. 2C) from of 50 to 4% for lenalidomide, from 70 to 15% for pomalidomide, and from 65 to 22% for Compound B.

pRb = pRb phosphorylation in H929 cells (Western blot); format: cell-based
DLBCL cells = experiment: 3H-thymidine incorporation cell proliferation assay in DLBCL cell lines; format: cell-based; details: 0.01-100 μM, 5 days
Description: Cell proliferation was assessed using the ^3H-thymidine incorporation assay. Briefly, logarithmically growing DLBCL cells were cultured in 96-well culture plates in complete media with the indicated concentration of lenalidomide or DMSO control. Following incubation at 37° C. for 5 days, 1 μCi ^3H-thymidine (GE Healthcare Biosciences, Piscataway, N.J.) was added to each well for the final 5 hours of incubation. Cells were then harvested onto UniFilter GF/C filter plates (PerkinElmer, Waltham, Mass.) using a cell harvester (Tomtec, Hamden, Conn.) and the plates were allowed to dry overnight. The ^3H-thymidine incorporation of each well was then measured using a TopCount NXT Microplate Scintillation and Luminescence Counter (Packard BioScience, Meriden, Conn.). The percent inhibition of cell proliferation was calculated and normalized to DMSO control.
(§1) In order to define the place of lenalidomide for DLBCL therapy in specific patient populations and to understand the molecular mechanisms of efficacy, a panel of DLBCL cell lines was collected in this study. The DLBCL subtypes of the cell lines were confirmed based on literature information (Lenz G, et al., Proc Natl Acad Sci USA 2008; 105: 13520-5) and molecular analysis, including intracellular NF-κB activity or IRF4 expression, as well as gene expression profiling of key signature genes of activated B cells.

OCI-Ly10 = experiment: Apoptosis of DLBCL cells; format: cell-based
Text: as §1

NF-κB = NF-κB subunit DNA binding ELISA on nuclear extracts; format: cell-based
Description: Logarithmically growing DLBCL cells were treated with test agents as indicated. Nuclear extracts were prepared using a Nuclear Extract Kit (Active Motif, Carlsbad, Calif.) and protein concentration was determined by the bicinchoninic acid assay (Thermo Scientific, Rockford, Ill.). Detection of NF-κB activity was performed using a sensitive oligo-based colorimetric enzyme-linked immunosorbent assay (ELISA) method, according to the instructions of the manufacturer (Active Motif). Briefly, nuclear extracts of DLBCL cells were hybridized to 96-well plates coated with wild-type DNA oligonucleotides containing a single copy of the NF-κB consensus binding sequence. Bound NF-κB protein was then detected with antibodies specific for p50, p65 (Rel A) or […] subunits. A secondary antibody conjugated to horseradish peroxidase was added and plates were then read by spectrophotometry at 450 nm with a reference wavelength of 655 nm. NF-κB activity was calculated based on OD450/655 nm.
The effect of lenalidomide on NF-κB activity in various DLBCL cells was examined by measuring the level of NF-κB subunit proteins binding to consensus sequences and the NF-κB-driven luciferase activity. […] In contrast, lenalidomide had no effect on NF-κB DNA binding in GCB-DLBCL lines nor in normal peripheral blood mononuclear cells.

OCI-Ly10 DLBCL cells = experiment: OCI-Ly10 human tumor xenograft model; format: in vivo
Description: . A total of 10×10^6 OCI-Ly10 DLBCL cells in 100% Matrigel (Becton Dickinson, San Jose, Calif.) were injected subcutaneously into the right flank of mice. Mice were monitored 2 or 3 times a week for the appearance of tumors. Once the tumors reached an average size of 100-150 mg, 10 mice in each group were treated with either vehicle (0.5% carboxymethyl cellulose: 0.25% Tween 80 in deionized H2O) or indicated doses of lenalidomide (qd×28, p.o.) or the positive control vincristine (q4d×4, i.v.). Mice were monitored daily for health status as well as tumor growth. Tumors of all mice were measured with a digital caliper and volumes calculated with the following formula: tumor volume (mm^3)=length (mm)×width (mm)^2. Mice were killed when tumor size exceeded 1000 mm^3.
To confirm the relevance of lenalidomide-mediated inhibition of NF-κB/IRF4 signaling in vivo in ABC-DLBCL, a subcutaneous OCI-Ly10 xenograft model was established. […] Compared with vehicle control group, lenalidomide treatment for 7 days reduced IRF4 expression and BCL-10 cleavage by 15-35% (p<0.05).

Nc1cccc2c1CN(C1CCC(=O)NC1=O)C2=O (stereo not shown) [lenalidomide, 3-(4-amino-1-oxo-1,3-dihydro-isoindol-2-yl)-piperidine-2,6-dione]
delay of cell cycle progression, measured as the decrease of the number of cells in S phase (U266B1 cells): 40% | delay in cell cycle progression (decrease of the number of cells in S phase) (H929 cells; H929 cells with knockdown of CRBN): 4% | delay in cell cycle progression (decrease of the number of cells in S phase) (H929 cells; control mock and negative control siRNA-transfected H929 cells): 50% | phosphorylation of pRB (pRb): decreased | proliferation of cells (DLBCL cells; ABC-DLBCL cell lines, except for OCI-Ly3): significantly inhibited | proliferation of cells (DLBCL cells; PBML and GCB-DLBCL cells): minimal effects | apoptosis of sensitive cell lines (OCI-Ly10): induced apoptosis | NF-κB DNA binding (NF-κB; GCB-DLBCL lines and normal peripheral blood mononuclear cells): no effect | NF-κB inhibition (NF-κB; lenalidomide-insensitive ABC-DLBCL OCI-Ly3 line with CARD11 mutation): not by lenalidomide | DNA binding by Rel A/p65, p50 and c-rel/p70 NF-κB subunits (NF-κB; several ABC-DLBCL cell lines, concentration-dependent): partially inhibited | tumor size (OCI-Ly10 DLBCL cells; 3-30 mg/kg po, qdX28, p<0.01): significantly decreased tumor size | toxicity based upon mouse weight (OCI-Ly10 DLBCL cells; throughout study): No pronounced toxicity | reduction of IRF4 expression and BCL-10 cleavage compared with vehicle control group (OCI-Ly10 DLBCL cells; treatment for 7 days, p<0.05): 15-35%
